Results reported in US20240285508A1, “METHOD AND COMPOSITION FOR IMPROVING THE APPEARANCE OF SKIN” (The Procter & Gamble Company, priority 2023, published 2024).
Where “and” joins values, the source holds several entries; their conditions need not be identical. Identical values can stand only once.

Key:
gelatin [1] = experiment: Advanced Glycation End Product Assay (AGE Assay), fluorescence intensity (FLR, glycation) readout; assay type: biochemical; conditions: 24 hours
Method: (§1) The AGE Assay provides an in vitro method of determining how a test agent impacts glycation. In particular, a material of interest can be applied to gelatin, which acts as a surrogate for collagen (i.e., a heterogeneous mixture of high-average-molecular-mass, water-soluble proteins present in collagen), at neutral pH range. A glycating reagent is added to the gelatin matrix to initialize glycation reaction. The resulting AGEs detected by a spectrophotometer. When testing a material of interest, such as lactobionic acid and/or white water lily extract is added to the gelatin sample, it reacts with the proteins in the gelatin, much in the same way as it would with collagen. Glycation reaction will be initiated when glycating reagent is added into this material and gelatin matrix and will produce AGEs. A positive (pos) glycation control group is set up the same way as testing material groups to contain gelatin and glycating reagent but less any treatment material. The positive control group depicts how much glycation and yellowness can be formed without perturbation by any treatment material. The spectrophotometer detects the fluorescence intensity (“FLR”) or yellowness (b*) associated with the resulting AGEs, which can then be correlated to the amount of glycation that occurs in skin. Lower b* and FLR values correspond to less AGEs, and thus less glycation.
(§2) Three replicates of each test samples are prepared in a 96-well plate (e.g., a FALCON brand 96-well tissue culture plate or equivalent) at equal and defined volume. The plate(s) containing the test samples are placed in a standard cell culture incubator (e.g., THERMO SCIENTIFIC FORMA brand incubator available from Fisher Scientific, Waltham, MA or equivalent) and incubated for the duration of the test at 37° C. with 5% CO2 and 95% relative humidity. Fluorescence intensity (FLR) and yellowness are measured at the start of test (time=0) and monitored for 24 hours. To measure FLR or b*, the plate(s) containing the test samples are removed from the incubator and placed in a SPECTRAMAX Plus brand spectrophotometer (available from Molecular Devices, Sunnyvale, California) or equivalent. To detect fluorescence intensity (“FLR”), the spectrophotometer is set at 400/465 nm (ex/em). To detect yellowness (b*), the spectrophotometer is set to collect absorbance spectrum from 350 nm to 750 nm in 10 nm increments. The absorbance spectra from the yellowness measurement are then converted to L*a*b* values by a computer using suitable conversion software.
(§3) The change in fluorescence intensity (“ΔFLR”) is determined by comparing the FLR of a well at a sampling time point to the initial FLR at time=0. The change in yellowness (“Δb*”) at a particular time point is determined by comparing the initial b* value at time=0 to the b* value at the time point of interest. To determine the relative amount of glycation or yellowness formed due to a treatment effect compared to the positive glycation control group, which doesn't contain any active treatment, the ΔFLR and Δb* values from a treatment group is normalized against the corresponding values from the positive glycation control group (pos glycation) according to the following equation: […]
(§4) The test samples were prepared in triplicate for each testing group on a 96-well plate with 250 μl volume per well. Each well contains 2.25 mg gelatin (available from Sigma® as Catalog #G1393), the testing material(s) diluted to desired concentration, 40 mM DL-Glyceraldehyde (available from Sigma®, Catalog #G5001-5G), and a sufficient quantity of Dulbecco's phosphate buffered saline (“DPBS”) (available from Gibco's, Catalog #14190-144). The vehicle control contained 2.25 mg gelatin and a sufficient quantity of DPBS. The positive glycation control contained 2.25 mg gelatin, 40 mM DL-glyceraldehyde and DPBS.
(§5) The average glycation, ΔFLR, and yellowness, Δb*, were determined for each sample according to the AGE Assay described herein. The duration of the test was 24 hours. […]

gelatin [2] = experiment: Advanced Glycation End Product Assay (AGE Assay), yellowness (b*) readout; assay type: biochemical; conditions: 24 hours; for % Δb* (yellowness) from a treatment vs positive glycation control / Convert to % Δb* inhibition (100%-% Δb*) / Convert to % Δb* inhibition (100-% Δb*): samples 1-3
Method: as §1, §2, §3, §4, §5

[3] = 0.101% lactobionic acid, Table 4, samples 1-3
[4] = 0.2% lactobionic acid, Table 2, samples 1-3
[5] = 0.101% lactobionic acid, Table 3

**Q.** Which results are given for `O=C(O)[C@H](O)[C@@H](O)[C@H](O[C@@H]1O[C@H](CO)[C@H](O)[C@H](O)[C@H]1O)[C@H](O)CO` [LBA, lactobionic acid]?
**A.** Mean % ΔFLR inhibition for each group (gelatin [1]; 0.1% LBA, Table 2): 24%; % ΔFLR (glycation) normalized vs positive glycation control (gelatin [1]; 0.1% LBA, Table 2, samples 1-3): 77% and 75%; Convert to % ΔFLR inhibition (100-% ΔFLR) (gelatin [1]; 0.1% LBA, Table 2, samples 1-3): 23% and 25%; Mean % ΔFLR inhibition for each group (gelatin [1]; 0.1% LBA, Table 6): 30%; % ΔFLR (glycation) normalized vs positive glycation ctrl (gelatin [1]; 0.1% LBA, Table 6, samples 1-3): 69% and 71% and 70%; Convert to % ΔFLR inhibition (100-% ΔFLR) (gelatin [1]; 0.1% LBA, Table 6, samples 1-3): 31% and 29% and 30%; Mean % ΔFLR inhibition for each group (gelatin [1]; 0.101% lactobionic acid, Table 4): 27%; % ΔFLR (glycation) normalized vs positive glycation control (gelatin [1]; [3]): 73% and 74%; Convert to % ΔFLR inhibition (100-% ΔFLR) (gelatin [1]; [3]): 27% and 26%; Mean % ΔFLR inhibition for each group (gelatin [1]; 0.2% lactobionic acid, Table 2): 44%; % ΔFLR (glycation) normalized vs positive glycation control (gelatin [1]; [4]): 55% and 56%; Convert to % ΔFLR inhibition (100-% ΔFLR) (gelatin [1]; [4]): 45% and 44%; Mean % Δb* inhibition for each group (gelatin [2]; 0.1% LBA, Table 1): 27%; % Δb* (yellowness) from a treatment vs positive glycation control (gelatin [2]; 0.1% LBA, Table 1): 73%; Convert to % Δb* inhibition (100%-% Δb*) (gelatin [2]; 0.1% LBA, Table 1): 27%; Mean % Δb* inhibition for each group (gelatin [2]; 0.1% LBA, Table 5): 32%; % Δb* (yellowness) from a treatment vs positive glycation control (gelatin [2]; 0.1% LBA, Table 5): 68% and 69% and 67%; Convert to % Δb* inhibition (100-% Δb*) (gelatin [2]; 0.1% LBA, Table 5): 32% and 31% and 33%; Mean % Δb* inhibition for each group (gelatin [2]; [5]): 32%; % Δb* (yellowness) from a treatment vs positive glycation control (gelatin [2]; [5]): 68%; Convert to % Δb* inhibition (100-% Δb*) (gelatin [2]; [5]): 32%; Mean % Δb* inhibition for each group (gelatin [2]; 0.2% lactobionic acid, Table 1): 49%; % Δb* (yellowness) from a treatment vs positive glycation control (gelatin [2]; 0.2% lactobionic acid, Table 1): 50% and 53% and 51%; Convert to % Δb* inhibition (100%-% Δb*) (gelatin [2]; 0.2% lactobionic acid, Table 1): 50% and 47% and 49%
